US20230270828A1, “COMPOSITION FOR USE IN THE TREATMENT OF VIRAL INFECTIONS” (BICT S.R.L., priority 2020, published 2023)
Where two headings read alike, the source gives them in different places. Marks after values point to notes of the source that are not given here.

What was measured:
[1] = test system: Vero cells (Monkey Kidney Epithelial Cells)
[2] = test system: canine herpes virus, CHV-1; experiment: Antiviral checkerboard assay, Cf2Th cells infected with canine herpes virus CHV-1; assay type: cell-based
Method: This antiviral activity was evaluated using Cf2Th cells (canine thymocytes) infected with canine herpes virus, CHV-1.
Briefly, the Cf2Th cells were plated at a concentration of 5×10^5 cells/mL in 96-well multiwells (100 μL/well) and incubated at 37° C. in an atmosphere with 5% CO2.
Upon reaching about 90% confluence (48 h incubation), the medium was aspirated from each well, and replaced with 100 μL fresh medium containing a final virus concentration equal to 1×10^3 UFP/mL, and different concentrations of Lactoferricin and Grape Seed extract.
In particular, the different combinations between the two compounds had been previously prepared by crossing serial dilutions of the same, according to the protocol defined “broth microdilution checkerboard method”.
The cells were left in co-incubation with the virus and the compounds under examination for 48 h (37° C. -5% CO2).
At the end of the incubation, the wells characterized by a cell lysis given by the viral infection were discriminated from those in which the virus was inhibited by the compounds and therefore with viable cells. This evaluation was carried out both by direct observation under the microscope and by staining with methylene blue. […]
To determine the actual presence of synergy between the two compounds, the ratio below was calculated, defined as the FIC Index (FIC I). […]

SARS-CoV-2 [3] = assay type: cell-based
SARS-CoV-2 [4] = experiment: Virucide activity against SARS-CoV-2, plaque assay; assay type: cell-based; settings: scheme B+C; for SARS-CoV-2 infectivity reduced by: plaque assay

CCN(CC)CCCC(C)Nc1ccnc2cc(Cl)ccc12 (centres unmarked) [Chloroquine, chloroquine, reference compound] was tested. Which CC10 ([1]; Vero cells, 72 h, MTT) did it give?
The CC10 was 20.93 ± 4.39 µM.

Which results are given for Lactoferricin?
Minimum Antiviral Concentration Compound alone ([2]; CHV-1, 48 h co-incubation): 3.125%; Minimum Antiviral Concentration Compound in association ([2]; in association with Grape Seed Extract, CHV-1, 48 h): 0.781%

With lactoferrin/lactoferricin [PREP 1] as the compound, how does the CC10 ([1]; Vero cells, 72 h, MTT) read?
Its CC10 is >4.06* mg/ml.

What about the CC50 ([1]; Vero cells, 72 h, MTT) of the same compound?
The CC50 was >4.06* mg/ml.

And the “maximum nontoxic concentration (assumed)” value ([1]; Vero cells, based on CC50/CC10 data)?
Its value is 4.06 mg/mL.

What about the “Mean ΔCt” value (SARS-CoV-2 [3]; 1.02 mg/ml, scheme A (preincubation of virus with compound)) of the same compound?
The value was 0.16.

And the “Mean ΔCt” value (SARS-CoV-2 [3]; 1.02 mg/ml, scheme B+C (during and after inoculum))?
The value was −0.48.

What about the “Mean ΔCt” value (SARS-CoV-2 [3]; 1.02 mg/ml, scheme B+C+D (during, after inoculum and repeated)) of the same compound?
The value was −0.59.

What about the “Mean ΔCt” value (SARS-CoV-2 [3]; 2.03 mg/ml, scheme A (preincubation of virus with compound)) of the same compound?
The value was 0.36.

What about the “Mean ΔCt” value (SARS-CoV-2 [3]; 2.03 mg/ml, scheme B+C (during and after inoculum)) of the same compound?
Its value is −0.50.

What about the “Mean ΔCt” value (SARS-CoV-2 [3]; 2.03 mg/ml, scheme B+C+D (during, after inoculum and repeated)) of the same compound?
Its value is −1.11.

What about the “Mean ΔCt” value (SARS-CoV-2 [3]; 4.06 mg/ml, scheme A (preincubation of virus with compound)) of the same compound?
Its value is 0.52.

And the “Mean ΔCt” value (SARS-CoV-2 [3]; 4.06 mg/ml, scheme B+C (during and after inoculum))?
Its value is −2.90.

What about the “Mean ΔCt” value (SARS-CoV-2 [3]; 4.06 mg/ml, scheme B+C+D (during, after inoculum and repeated)) of the same compound?
The value was −3.64.

And the “mean ΔCt over schemes C, B+C and B+C+D” value (SARS-CoV-2 [3]; high dose, added after the inoculum, one or twice)?
The value was −3.3.

For polylysine [PREP 3], which “SARS-CoV-2 infectivity reduced by” value (SARS-CoV-2 [4]; 0.05 mg/ml) is on record?
Its value is 20%.

What about the “percentage of virus replication compared to untreated infected cells” value (“percentage of virus replication” for short) (SARS-CoV-2 [4]; 0.05 mg/ml) of the same compound?
The value was 80%.

What about the “SARS-CoV-2 infectivity reduced by” value (SARS-CoV-2 [4]; 0.1 mg/ml) of the same compound?
Its value is 30.2%.

And the “percentage of virus replication” value (SARS-CoV-2 [4]; 0.10 mg/ml)?
Its value is 69.8%.

What about the “SARS-CoV-2 infectivity reduced by” value (SARS-CoV-2 [4]; 0.20 mg/ml) of the same compound?
Its value is 48.8%.

And the “percentage of virus replication” value (SARS-CoV-2 [4]; 0.20 mg/ml)?
Its value is 51.2%.

What about the “SARS-CoV-2 infectivity reduced by” value (SARS-CoV-2 [4]; 0.40 mg/ml) of the same compound?
The value was 96.3%.

What about the “percentage of virus replication” value (SARS-CoV-2 [4]; 0.40 mg/ml) of the same compound?
Its value is 3.7%.

What about the CC10 [1] of the same compound?
The CC10 was over 0.40 mg/mL.

And the “antiviral effect” value (SARS-CoV-2 [3])?
Its value is “No antiviral effect”.

And the “virus inhibition (antiviral and virucide activities)” value (SARS-CoV-2 [3])?
The value was “more than 90%”.

And the “ΔCt, dose-dependent antiviral effect” value (SARS-CoV-2 [3])?
The value was −1.80 to −5.22.

What about the “antiviral effect” value (SARS-CoV-2 [3]; addition of a third dose (scheme B+C+D)) of the same compound?
Its value is “slight effect”.

And the “decrease in the viral replication” value (SARS-CoV-2 [3]; scheme B+C)?
Its value is “more than 1 log”.

What about the “maximum inhibition of the virus replication” value (SARS-CoV-2 [3]; scheme B+C) of the same compound?
Its value is 93%.

And the “antiviral effect” value (SARS-CoV-2 [3]; schemes A, B and C)?
Its value is “no effect”.
